Measurements published in patent US8772499B2, “TRPV3 modulators” (AbbVie Inc., priority 2011, dated 2014).
Like-named read-outs stand apart in the source and are kept apart here.

Key:
[1] = In vitro human microsomal stability assay; assay type: in vitro ADME; details: for HUMAN MICROSOMAL STABILITY (% REMAINING AFTER 30 MINUTES): microsomes, 0.5 h, 0.5 μM, pH 7.4
Method in brief: (§1)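 Sprague-Dawley rat or human liver microsomes; 37° C.; NADPH cofactor, also spiked into time-zero samples.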

human TRPV3 = target: T1, human TRPV3 (Homo sapiens, UniProt Q8NET8); assay: In vitro antagonism of recombinant human TRPV3 activation (FLIPR Tetra calcium assay); assay type: cell-based; details: HEK293 cells stably expressing human TRPV3, agonist 2-APB at 80 μM
T1 construct: expressed in transfected cells
T1 sequence (Q8NET8 1-790): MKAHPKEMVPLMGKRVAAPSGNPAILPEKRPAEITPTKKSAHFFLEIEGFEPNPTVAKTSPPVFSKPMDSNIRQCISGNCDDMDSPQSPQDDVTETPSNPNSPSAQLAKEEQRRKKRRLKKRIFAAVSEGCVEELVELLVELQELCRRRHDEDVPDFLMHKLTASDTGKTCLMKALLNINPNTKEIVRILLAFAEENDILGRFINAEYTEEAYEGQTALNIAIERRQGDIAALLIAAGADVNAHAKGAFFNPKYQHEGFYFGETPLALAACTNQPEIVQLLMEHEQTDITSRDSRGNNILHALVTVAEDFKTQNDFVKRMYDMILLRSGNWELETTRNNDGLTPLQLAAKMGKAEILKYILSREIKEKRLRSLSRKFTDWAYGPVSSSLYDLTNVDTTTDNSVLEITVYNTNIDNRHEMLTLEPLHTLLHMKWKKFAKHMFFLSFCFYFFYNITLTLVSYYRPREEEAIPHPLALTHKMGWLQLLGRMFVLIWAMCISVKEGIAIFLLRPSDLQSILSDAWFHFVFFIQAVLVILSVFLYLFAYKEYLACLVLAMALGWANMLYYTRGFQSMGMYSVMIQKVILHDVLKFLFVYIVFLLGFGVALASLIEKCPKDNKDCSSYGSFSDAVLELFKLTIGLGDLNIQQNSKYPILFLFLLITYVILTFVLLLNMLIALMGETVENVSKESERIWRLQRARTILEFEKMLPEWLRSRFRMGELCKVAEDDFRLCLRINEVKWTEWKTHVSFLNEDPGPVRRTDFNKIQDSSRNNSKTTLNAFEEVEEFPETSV
Method in brief: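 Calcium flux read over a 10 min run: compound added at 10 s to Calcium-4-loaded human TRPV3-HEK293 cells, agonist 2-APB (80 μM, its EC80) after 3 min. IC50 derived from peak-minus-baseline signal as percentage of uninhibited 2-APB response, typically averaged over at least two runs.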

[2] = In vitro rat microsomal stability assay; assay type: in vitro ADME, rat (Sprague-Dawley); details: for RAT MICROSOMAL STABILITY (% REMAINING AFTER 30 MINUTES): Sprague-Dawley, microsomes, 0.5 h, 0.5 μM, pH 7.4
Method in brief: as §1

[3] = actual measured value shown parenthetically, in most cases average of at least two runs, read-out: IC50
[4] = reported range, read-out: IC50 (range class)

SMILES | HUMAN MICROSOMAL STABILITY (% REMAINING AFTER 30 MINUTES) [1] [%] | IC50 (human TRPV3; [3]) [µM] | IC50 (human TRPV3; [4]) [µM] | RAT MICROSOMAL STABILITY (% REMAINING AFTER 30 MINUTES) [2] [%] | HUMAN […] (% REMAINING AFTER 30 MINUTES) ([1]; human liver microsomes, 0.5 μM substrate, 0.25 mg/mL microsomal protein, pH 7.4, 37° C., NADPH, 30 minutes) [%] | RAT […] (% REMAINING AFTER 30 MINUTES) ([2]; rat liver microsomes (Sprague-Dawley), 0.5 μM substrate, 0.25 mg/mL microsomal protein, pH 7.4, 37° C., NADPH, 30 minutes) [%]
OC(C1CCc2cccnc21)C1(c2ccc(OC(F)(F)F)cc2)CCC1 (stereo not drawn) [Example 175, (anti)-6,7-dihydro-5H-cyclopenta[b]pyridin-7-yl{1-[4-(trifluoromethoxy)-phenyl]cyclobutyl}methanol] | 29 | > 20 | > 20 | <0.01 | – | –
OC(C1CCc2cccnc21)C1(c2ccccc2C(F)(F)F)CCC1 (stereo not drawn) [Example 198, (syn)-6,7-dihydro-5H-cyclopenta[b]pyridin-7-yl{1-[2-(trifluoromethyl)-phenyl]cyclobutyl}methanol] | 0.05 | > 20 | > 20 | <0.01 | – | –
CN1CC(c2ccc(C(F)(F)F)cc2)(C(O)c2ccccn2)C1 (stereo not shown) [Example 155, {1-methyl-3-[4-(trifluoromethyl)phenyl]azetidin-3-yl}(pyridin-2-yl)-methanol] | >85 | 17 | – | 76 | – | –
O=C1CC(c2cccc(OC(F)(F)F)c2)([C@@H](O)c2ccccn2)C1 (single isomer, unassigned) [Example 257] | 42 | 9.51 | – | 57 | – | –
O[C@@H](c1ccccn1)[C@]1(c2cc(C(F)(F)F)ccn2)C[C@H](O)C1 (relative stereo) [Example 290, cis-3-[(R)-hydroxy(pyridin-2-yl)methyl]-3-[4-(trifluoromethyl)pyridin-2-yl]cyclobutanol] | – | – | > 20 | – | >85 | 71
N[C@H]1CCC[C@@H]1[C@H](O)C1(c2ccc(Cl)cc2)CCC1 [Example 225, (S)-[(1S,2S)-2-aminocyclopentyl][1-(4-chlorophenyl)cyclobutyl]methanol] | >85 | 2.82 | – | 34 | – | –
OC(C1CCCc2cccnc21)C1(c2ccccc2C(F)(F)F)CCC1 (stereo not drawn) [Example 195, (anti)-5,6,7,8-tetrahydroquinolin-8-yl{1-[2-(trifluoromethyl)phenyl]-cyclobutyl}methanol] | <0.01 | > 20 | > 20 | <0.01 | – | –
OC(c1ccccn1)C1(c2ccccc2OC(F)(F)F)CCC1 (stereo not shown) [Example 10, pyridin-2-yl{1-[2-(trifluoromethoxy)phenyl]cyclobutyl}methanol] | 0.42 | 1.1 | – | 0.62 | – | –
N[C@@H]1CCC[C@H]1[C@@H](O)C1(c2ccc(Cl)c(Cl)c2)CCC1 [Example 220, (R)-[(1R,2R)-2-aminocyclopentyl][1-(3,4-dichlorophenyl)cyclobutyl]-methanol] | >85 | 0.65 | – | 67 | – | –
OC(c1ccccn1)C1(c2cccc(OC(F)(F)F)c2)CC2(C1)OCCO2 (stereo not shown) [Example 235, pyridin-2-yl{2-[3-(trifluoromethoxy)phenyl]-5,8-dioxaspiro[3.4]oct-2-yl}-methanol] | 20 | 3.32 | – | <0.01 | – | –
OC(C1CCCc2cccnc21)C1(c2cccc(C(F)(F)F)c2)CCC1 (single isomer, unassigned) [Example 179, (anti)-5,6,7,8-tetrahydroquinolin-8-yl{1-[3-(trifluoromethyl)phenyl]-cyclobutyl}methanol] | <0.01 | 2.95 | – | <0.01 | – | –
OC(c1ccccn1)C1(C2=CCCC(C(F)(F)F)C2)CCC1 (stereo not shown) [Example 261, pyridin-2-yl{1-[5-(trifluoromethyl)cyclohex-1-en-1-yl]cyclobutyl}methanol] | 0.01 | 1.27 | – | <0.01 | – | –

Continued, in another order:

HUMAN MICROSOMAL STABILITY (% REMAINING AFTER 30 MINUTES) [1] [%] | IC50 (human TRPV3; [3]) [µM] | IC50 (human TRPV3; [4]) [µM] | RAT MICROSOMAL STABILITY (% REMAINING AFTER 30 MINUTES) [2] [%] | SMILES | HUMAN […] (% REMAINING AFTER 30 MINUTES) ([1]; human liver microsomes, 0.5 μM substrate, 0.25 mg/mL microsomal protein, pH 7.4, 37° C., NADPH, 30 minutes) [%] | RAT […] (% REMAINING AFTER 30 MINUTES) ([2]; rat liver microsomes (Sprague-Dawley), 0.5 μM substrate, 0.25 mg/mL microsomal protein, pH 7.4, 37° C., NADPH, 30 minutes) [%]
80 | > 20 | > 20 | 59 | O=C1CC(c2ccnc(C(F)(F)F)c2)(C(O)c2ccccn2)C1 (stereo not shown) [Example 298, 3-[hydroxy(pyridin-2-yl)methyl]-3-[2-(trifluoromethyl)pyridin-4-yl]-cyclobutanone] | – | –
15 | > 20 | > 20 | <0.01 | COc1ccc(C(O)C2(c3ccc(Cl)c(Cl)c3)CCC2)nc1 (stereo not shown) [Example 287, [1-(3,4-dichlorophenyl)cyclobutyl](5-methoxypyridin-2-yl)methanol] | – | –
4.0 | 0.54 | – | 17 | O[C@H](c1ccccn1)C1(c2ccc(Cl)c(Cl)c2)CC1 [Example 231, (S)-[1-(3,4-dichlorophenyl)cyclopropyl](pyridin-2-yl)methanol] | – | –
>85 | > 20 | > 20 | 37 | OC(c1ccccn1)C1(c2ccc(Cl)c(Cl)c2)CCNCC1 (stereo not shown) [Example 140, [4-(3,4-dichlorophenyl)piperidin-4-yl](pyridin-2-yl)methanol] | – | –
80 | > 20 | > 20 | 81 | OC(c1ccccn1)C1(c2cccnc2)CCC1 (stereo not shown) [Example 20, pyridin-2-yl(1-pyridin-3-ylcyclobutyl)methanol] | – | –
30 | 1.24 | – | 0.17 | OC(c1ccccn1)C1(c2ccc(Cl)c(Cl)c2)CCCO1 (single isomer, unassigned) [Example 99, (syn)-[2-(3,4-dichlorophenyl)tetrahydrofuran-2-yl](pyridin-2-yl)methanol] | – | –
12 | 0.44 | – | 13 | O[C@H](c1ccccn1)C1(c2ccc(C(F)(F)F)cc2)CCC1 [Example 28, (S)-pyridin-2-yl{1-[4-(trifluoromethyl)phenyl]cyclobutyl}methanol] | – | –
83 | 16.6 | – | 77 | O=C1CC(c2ccc(C(F)(F)F)cc2)([C@@H](O)c2ccccn2)C1 (single isomer, unassigned) [Example 165] | – | –
0.21 | 3.4 | – | 0.017 | Cc1ccccc1CC1(C(O)c2ccccn2)CCC1 (stereo not shown) [Example 253, [1-(2-methylbenzyl)cyclobutyl](pyridin-2-yl)methanol] | – | –
6.8 | 0.41 | – | 0.45 | OC(CC1(c2cccc(C(F)(F)F)c2)CCC1)c1ccccn1 (stereo not shown) [Example 74, 1-(pyridin-2-yl)-2-{1-[3-(trifluoromethyl)phenyl]cyclobutyl}ethanol] | – | –
